Assay results taken from patent publication US8835134B2, “Cycloastragenol monoglucoside, preparation, pharmaceutical composition and application thereof” (Tianjin Institute of Pharmaceutical Research, priority 2007, dated 2014).

Tests used:
isolated rat heart = assay: Cardiotonic effects on isolated heart (Langendorff perfusion); design: species or system Wistar rats
Method: Wistar rats (250-280 g) were anesthetized with chloral hydrate (360 mg/kg intraperitoneally) and heparinized with sodium heparin (1 mg) via sublingual vein. After opening the chest cavity, the hearts were quickly excised and immersed in cold Krebs-Henseleit (K-H) solution. Hearts were retrogradely perfused with 74 centimeters of water pressure via the aorta in a Langendorff apparatus with K-H solution, which was bubbled with a mixture of 95% O2 and 5% CO2. The suture fixed on cardiac apex was connected to a tension transducer which was connected to a polygraph (RM6300, Nihon Kohden, Japan) and a data acquisition workstation (MP150, BIOPAC Systems, USA) to a computer running Acknowledge (version 3.7.1).

Solubility = assay type: physicochemical

SMILES: CC(C)(O)[C@@H]1CC[C@](C)([C@H]2[C@@H](O)C[C@@]3(C)[C@@H]4C[C@H](O[C@@H]5O[C@H](CO)[C@@H](O)[C@H](O)[C@H]5O)[C@H]5C(C)(C)[C@@H](O[C@@H]6OC[C@@H](O)[C@H](O)[C@H]6O)CC[C@@]56C[C@@]46CC[C@]23C)O1 [astragaloside IV, reference compound]
- Contractility Variation (%) (isolated rat heart; 1 × 10^−7 mol/L): 24.56 ± 12.44^++ %
- Contractility after administration (isolated rat heart; 1 × 10^−7 mol/L): 1.73 ± 0.42 g
- Contractility before administration (isolated rat heart; 1 × 10^−7 mol/L): 1.42 ± 0.41 g
- HR Variation (%) (isolated rat heart; 1 × 10^−7 mol/L): −24 ± 17^+ %
- HR after administration (isolated rat heart; 1 × 10^−7 mol/L): 117 ± 52 bpm
- HR before administration (isolated rat heart; 1 × 10^−7 mol/L): 151 ± 60 bpm
- peak derivatives of contractility Variation (%) (isolated rat heart; 1 × 10^−7 mol/L): 21 ± 19^+ %
- peak derivatives of contractility Δ T/S after administration (isolated rat heart; 1 × 10^−7 mol/L): 78 ± 14 g/s
- peak derivatives of contractility Δ T/S before administration (isolated rat heart; 1 × 10^−7 mol/L): 66 ± 13 g/s
- peak derivatives of diastolic force Variation (%) (isolated rat heart; 1 × 10^−7 mol/L): 15 ± 9^+ %
- peak derivatives of diastolic force Δ T/S after administration (isolated rat heart; 1 × 10^−7 mol/L): -50 ± 11 g/s
- peak derivatives of diastolic force Δ T/S before administration (isolated rat heart; 1 × 10^−7 mol/L): -44 ± 11 g/s
- Contractility Variation (%) (isolated rat heart; 1 × 10^−8 mol/L): 6.00 ± 9.25%
- Contractility after administration (isolated rat heart; 1 × 10^−8 mol/L): 1.94 ± 0.43 g
- Contractility before administration (isolated rat heart; 1 × 10^−8 mol/L): 1.83 ± 0.38 g
- HR Variation (%) (isolated rat heart; 1 × 10^−8 mol/L): −6 ± 5%
- HR after administration (isolated rat heart; 1 × 10^−8 mol/L): 144 ± 34 bpm
- HR before administration (isolated rat heart; 1 × 10^−8 mol/L): 152 ± 30 bpm
- peak derivatives of contractility Variation (%) (isolated rat heart; 1 × 10^−8 mol/L): 6 ± 15%
- peak derivatives of contractility Δ T/S after administration (isolated rat heart; 1 × 10^−8 mol/L): 81 ± 19 g/s
- peak derivatives of contractility Δ T/S before administration (isolated rat heart; 1 × 10^−8 mol/L): 76 ± 18 g/s
- peak derivatives of diastolic force Variation (%) (isolated rat heart; 1 × 10^−8 mol/L): 8 ± 8%
- peak derivatives of diastolic force Δ T/S after administration (isolated rat heart; 1 × 10^−8 mol/L): -46 ± 9 g/s
- peak derivatives of diastolic force Δ T/S before administration (isolated rat heart; 1 × 10^−8 mol/L): -43 ± 10 g/s
- Contractility Variation (%) (isolated rat heart; 3 × 10^−8 mol/L): 6.98 ± 8.82%
- Contractility after administration (isolated rat heart; 3 × 10^−8 mol/L): 1.88 ± 0.40 g
- Contractility before administration (isolated rat heart; 3 × 10^−8 mol/L): 1.78 ± 0.46 g
- HR Variation (%) (isolated rat heart; 3 × 10^−8 mol/L): −14 ± 13%
- HR after administration (isolated rat heart; 3 × 10^−8 mol/L): 145 ± 65 bpm
- HR before administration (isolated rat heart; 3 × 10^−8 mol/L): 167 ± 64 bpm
- peak derivatives of contractility Variation (%) (isolated rat heart; 3 × 10^−8 mol/L): 12 ± 7^+ %
- peak derivatives of contractility Δ T/S after administration (isolated rat heart; 3 × 10^−8 mol/L): 76 ± 18 g/s
- peak derivatives of contractility Δ T/S before administration (isolated rat heart; 3 × 10^−8 mol/L): 69 ± 19 g/s
- peak derivatives of diastolic force Variation (%) (isolated rat heart; 3 × 10^−8 mol/L): 10 ± 11%
- peak derivatives of diastolic force Δ T/S after administration (isolated rat heart; 3 × 10^−8 mol/L): -45 ± 12 g/s
- peak derivatives of diastolic force Δ T/S before administration (isolated rat heart; 3 × 10^−8 mol/L): -41 ± 12 g/s
- Contractility (isolated rat heart; isolated rat heart): increased
- Heart rate (isolated rat heart; isolated rat heart): decreased
- Peak derivatives of contractility (isolated rat heart; isolated rat heart): increased
- Peak derivatives of diastolic force (isolated rat heart; isolated rat heart): increased
- solubility (Solubility): 2-4 mg/100 ml

SMILES: CC(C)(O)[C@@H]1CC[C@](C)([C@H]2[C@@H](O)C[C@@]3(C)C4C[C@H](OC5OC(CO)C(O)C(O)C5O)C5C(C)(C)[C@@H](O)CC[C@@]56C[C@@]46CC[C@]23C)O1 (stereo partly drawn) [CMG, Cycloastragenol-6-O-β-D-glucoside]
- Contractility Variation (%) (isolated rat heart; 1 × 10^−7 mol/L): 17.08 ± 7.19^++ %
- Contractility after administration (isolated rat heart; 1 × 10^−7 mol/L): 2.06 ± 0.59 g
- Contractility before administration (isolated rat heart; 1 × 10^−7 mol/L): 1.77 ± 0.52 g
- HR Variation (%) (isolated rat heart; 1 × 10^−7 mol/L): −38 ± 22^++ %
- HR after administration (isolated rat heart; 1 × 10^−7 mol/L): 92 ± 35 bpm
- HR before administration (isolated rat heart; 1 × 10^−7 mol/L): 145 ± 16 bpm
- peak derivatives of contractility Variation (%) (isolated rat heart; 1 × 10^−7 mol/L): 18 ± 6^++ %
- peak derivatives of contractility Δ T/S after administration (isolated rat heart; 1 × 10^−7 mol/L): 86 ± 13 g/s
- peak derivatives of contractility Δ T/S before administration (isolated rat heart; 1 × 10^−7 mol/L): 73 ± 11 g/s
- peak derivatives of diastolic force Variation (%) (isolated rat heart; 1 × 10^−7 mol/L): 14 ± 8^+ %
- peak derivatives of diastolic force Δ T/S after administration (isolated rat heart; 1 × 10^−7 mol/L): -51 ± 14 g/s
- peak derivatives of diastolic force Δ T/S before administration (isolated rat heart; 1 × 10^−7 mol/L): -45 ± 14 g/s
- Contractility Variation (%) (isolated rat heart; 1 × 10^−8 mol/L): 7.72 ± 8.03%
- Contractility after administration (isolated rat heart; 1 × 10^−8 mol/L): 1.97 ± 0.61 g
- Contractility before administration (isolated rat heart; 1 × 10^−8 mol/L): 1.81 ± 0.49 g
- HR Variation (%) (isolated rat heart; 1 × 10^−8 mol/L): −17 ± 18%
- HR after administration (isolated rat heart; 1 × 10^−8 mol/L): 124 ± 25 bpm
- HR before administration (isolated rat heart; 1 × 10^−8 mol/L): 156 ± 51 bpm
- peak derivatives of contractility Variation (%) (isolated rat heart; 1 × 10^−8 mol/L): 6 ± 8%
- peak derivatives of contractility Δ T/S after administration (isolated rat heart; 1 × 10^−8 mol/L): 76 ± 19 g/s
- peak derivatives of contractility Δ T/S before administration (isolated rat heart; 1 × 10^−8 mol/L): 71 ± 15 g/s
- peak derivatives of diastolic force Variation (%) (isolated rat heart; 1 × 10^−8 mol/L): 7 ± 9%
- peak derivatives of diastolic force Δ T/S after administration (isolated rat heart; 1 × 10^−8 mol/L): -47 ± 16 g/s
- peak derivatives of diastolic force Δ T/S before administration (isolated rat heart; 1 × 10^−8 mol/L): -44 ± 15 g/s
- Contractility Variation (%) (isolated rat heart; 3 × 10^−8 mol/L): 5.84 ± 2.92%
- Contractility after administration (isolated rat heart; 3 × 10^−8 mol/L): 1.92 ± 0.72 g
- Contractility before administration (isolated rat heart; 3 × 10^−8 mol/L): 1.83 ± 0.72 g
- HR Variation (%) (isolated rat heart; 3 × 10^−8 mol/L): −13 ± 12%
- HR after administration (isolated rat heart; 3 × 10^−8 mol/L): 128 ± 23 bpm
- HR before administration (isolated rat heart; 3 × 10^−8 mol/L): 150 ± 41 bpm
- peak derivatives of contractility Variation (%) (isolated rat heart; 3 × 10^−8 mol/L): 11 ± 9^+ %
- peak derivatives of contractility Δ T/S after administration (isolated rat heart; 3 × 10^−8 mol/L): 77 ± 16 g/s
- peak derivatives of contractility Δ T/S before administration (isolated rat heart; 3 × 10^−8 mol/L): 70 ± 16 g/s
- peak derivatives of diastolic force Variation (%) (isolated rat heart; 3 × 10^−8 mol/L): 10 ± 8%
- peak derivatives of diastolic force Δ T/S after administration (isolated rat heart; 3 × 10^−8 mol/L): -51 ± 18 g/s
- peak derivatives of diastolic force Δ T/S before administration (isolated rat heart; 3 × 10^−8 mol/L): -46 ± 15 g/s
- Contractility (isolated rat heart; isolated rat heart): increased
- Heart rate (isolated rat heart; isolated rat heart): decreased
- Peak derivatives of contractility (isolated rat heart; isolated rat heart): increased
- Peak derivatives of diastolic force (isolated rat heart; isolated rat heart): increased
- cardiotonic effect (conclusion) (isolated rat heart; isolated rat heart): exhibited cardiotonic effects
- solubility (Solubility): 40-50 mg/100 ml
- oral absorption (Oral absorption): good oral absorption properties
